In patent US20080125477A1, “7-(ACRYLOYL) INDOLE COMPOSITIONS AND METHODS OF MAKING AND USING SAME” (DECODE GENETICS, EHF., priority 2006, published 2008):
≈ marks a conversion by molar mass, not a printed value.

Columns and labels:
[1] = target: T1, prostanoid hEP3 receptors (Homo sapiens, UniProt P43115); assay: binding on prostanoid hEP3 receptors
T1 sequence (P43115 1-390): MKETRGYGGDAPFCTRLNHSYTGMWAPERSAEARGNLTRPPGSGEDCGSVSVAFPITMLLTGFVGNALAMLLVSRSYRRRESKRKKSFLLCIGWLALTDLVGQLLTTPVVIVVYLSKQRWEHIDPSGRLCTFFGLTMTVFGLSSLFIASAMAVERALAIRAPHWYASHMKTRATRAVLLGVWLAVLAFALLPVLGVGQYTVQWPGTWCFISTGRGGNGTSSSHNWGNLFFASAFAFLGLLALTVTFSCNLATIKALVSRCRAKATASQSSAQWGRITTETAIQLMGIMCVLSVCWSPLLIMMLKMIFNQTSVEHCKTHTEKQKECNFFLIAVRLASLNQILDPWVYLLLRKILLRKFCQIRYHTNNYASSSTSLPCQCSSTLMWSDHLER
Procedure: DTSI and related compounds were assayed for binding on prostanoid hEP3 receptors according to the method of Abramovitz et al [Bioch. Biophys.

[2] = tested on: pulmonary thromboembolism by arachidonic acid; assay: pulmonary thromboembolism assay (platelet aggregation in vivo); conditions: 100 mg/kg orally, 30 min before arachidonic acid 30 mg/kg i.v.; survival one hour after challenge
Procedure: DTSI was also assayed for its effects on platelet aggregation in vivo. […] For the pulmonary thromboembolism assay, conscious female C57BL/6 mice were dosed orally with the test compounds and 30 min later thromboembolism was induced by injection of arachidonic acid into a tail vein at a dose of 30 mg per kg body weight. Survival was evaluated one hour after the challenge with arachidonic acid, as mice that survive for that length of time usually recovered fully. The arachidonic acid injection was given via a lateral tail vein in a mouse that had been warmed briefly under a heat lamp (dilation of the tail veins using heat facilitates placing the injection). An insulin syringe, 0. 5 mL (from Becton Dickinson) was used for dosing. The dose volume given of both the test compound and the arachidonic acid was adjusted to the weight of the mouse (the dose volume p.o. for test compounds and i.v. for arachidonic acid solution was 10 μL and 5 μL per gram body weight, respectively).

[3] = aqueous solubility of micronized DTSI in surfactant/amine solutions; type: physicochemical; conditions: for solubility at 60 min: thermodynamic from solid, micronized DTSI
Procedure: The solubility of DTSI in aqueous PEG, cyclodextrins, glycerides and other solvent systems was evaluated. Excess amount of the DTSI was added to the aqueous compatible/complexation media, the suspension formed was sonicated for 60 minutes (and also heated up to 75° C. e.g. for cyclodextrins). The suspensions at room temperature were filtered and the amount of dissolved drug was determined by HPLC.

rodent platelets (rat) = assay: platelet aggregation in vitro, rat platelets; type: cell-based; conditions: agonist Sulprostone (100 nM) and collagen (2.0 ug.mL), Serum % 20
Procedure: (§1) DTSI and related compounds were assayed for their effect on platelet aggregation in vitro. In experiments with human platelets, whole blood was extracted from overnight-fasted human donors. Each experiment was performed with blood from a single individual. In experiments with rodent platelets, whole blood was gathered from the heart of female mice or male rats under isofluran (Abbott) anaesthesia. Blood was pooled from two or ten individual rodents for each experiment in the case of rat and mouse experiments, respectively. In all cases, blood was collected into 3.8% sodium citrate tubes (Greiner Bio-one). Platelet-rich plasma (PRP) was obtained by centrifugation at 100×g for 15 min at 25° C. for humans, at 150×g for rats, or at 80×g for 10 min for mice. Platelet-poor plasma was obtained by centrifugation of the remaining blood at 2,400×g for 10 min at 25° C. After counting in an Autocounter (Model 920 EO, Swelab) platelets were diluted when necessary to the desired stock concentrations (200,000-300,000 platelets/μl) using 0.9% NaCl isotonic solution (Braun).
(§2) Platelet aggregation was determined by light absorbance using a platelet aggregometer with constant magnetic stirring (Model 490, Chronolog Cop., Havertown, Pa., USA), using a volume of 500 μl per cuvette. […] IC50 values were calculated using GraphPad Prism 3.02 for Windows (GraphPad Software, San Diego, Calif. USA). […]

human platelets = assay: platelet aggregation in vitro, human platelets; type: cell-based; conditions: agonist Sulprostone (100 nM) and collagen (0.125 ug.mL), Serum % 100
Procedure: as §1, §2

Cc1cn(Cc2ccc(Cl)cc2Cl)c2c(/C=C/C(=O)NS(=O)(=O)c3cc(Cl)c(Cl)s3)cc(F)cc12 [DTSI, 4,5-dichlorothiophene-2-sulfonic acid [(E)-3-[1-(2,4-dichlorophenylmethyl)-5-fluoro-3-methyl-1H-indol-7-yl]-acryloyl]amide]
EP3 receptor antagonism (in words) [1]: potent, selective EP3 receptor antagonist
Survival rate [2]: 68%
aqueous solubility (in words) [3]: poor
solubility at 60 min ([3]; aqueous solution of 5% Cremophor RH40, aqueous with cosolvent or surfactant or cyclodextrin, 5% Cremophor RH40): 170 µg/mL (≈ 0.287 mM)
solubility at 60 min ([3]; aqueous solution of 5% Cremophor RH40 and 1% diethanolamine, aqueous with cosolvent or surfactant or cyclodextrin, 5% Cremophor RH40 and 1% diethanolamine): 22700 µg/mL (≈ 38.3 mM)
solubility at 60 min ([3]; aqueous solution of 5% Cremophor RH40 and 1% ethanolamine, aqueous with cosolvent or surfactant or cyclodextrin, 5% Cremophor RH40 and 1% ethanolamine): 8900 µg/mL (≈ 15 mM)
solubility at 60 min ([3]; aqueous solution of 5% Cremophor RH40 and 1% triethanolamine, aqueous with cosolvent or surfactant or cyclodextrin, 5% Cremophor RH40 and 1% triethanolamine): 8300 µg/mL (≈ 14 mM)
solubility at 60 min ([3]; aqueous solution of 5% Cremophor RH40 and 1% tromethamine, aqueous with cosolvent or surfactant or cyclodextrin, 5% Cremophor RH40 and 1% tromethamine): 8700 µg/mL (≈ 14.7 mM)
solubility at 60 min ([3]; aqueous solution of 5% Vitamin E TPGS and 1% choline, aqueous with cosolvent or surfactant or cyclodextrin, 5% Vitamin E TPGS and 1% choline): 46600 µg/mL (≈ 78.7 mM)
solubility at 60 min ([3]; aqueous solution of 5% Vitamin E TPGS and 1% diethanolamine, aqueous with cosolvent or surfactant or cyclodextrin, 5% Vitamin E TPGS and 1% diethanolamine): 20400 µg/mL (≈ 34.4 mM)
solubility at 60 min ([3]; aqueous solution of 5% Vitamin E TPGS and 1% ethanolamine, aqueous with cosolvent or surfactant or cyclodextrin, 5% Vitamin E TPGS and 1% ethanolamine): 19200 µg/mL (≈ 32.4 mM)
solubility at 60 min ([3]; aqueous solution of 5% Vitamin E TPGS and 1% triethanolamine, aqueous with cosolvent or surfactant or cyclodextrin, 5% Vitamin E TPGS and 1% triethanolamine): 9200 µg/mL (≈ 15.5 mM)
solubility at 60 min ([3]; aqueous solution of 5% Vitamin E TPGS and 1% tromethamine, aqueous with cosolvent or surfactant or cyclodextrin, 5% Vitamin E TPGS and 1% tromethamine): 8500 µg/mL (≈ 14.4 mM)
solubility at 60 min ([3]; aqueous solution of 5% Vitamin E TPGS and 5% diethanolamine, aqueous with cosolvent or surfactant or cyclodextrin, 5% Vitamin E TPGS and 5% diethanolamine): 58500 µg/mL (≈ 98.8 mM)
solubility at 60 min ([3]; aqueous solution of 5% Vitamin E TPGS, aqueous with cosolvent or surfactant or cyclodextrin, 5% Vitamin E TPGS): 100 µg/mL (≈ 0.169 mM)
solubility at 60 min ([3]; aqueous with cosolvent or surfactant or cyclodextrin, 5% Vitamin E TPGS and 0.5% diethanolamine): 15600 µg/mL (≈ 26.3 mM)
IC50 (rodent platelets (rat)): 83 nM
IC50 (human platelets): 218 nM
